The source of these data is patent publication US5837728A, “9-cis retinoic acid esters and amides and uses thereof” (priority 1995, dated 1998).

“Also recorded” adds a separate entry of the source.

The subject of assay [1] is partial-thickness skin wounds. The settings on record: cited from earlier work.
Assay [2] relates to Human neonatal foreskin fibroblasts. Kind of assay: Growth of human neonatal foreskin fibroblasts (cell number). As to conditions: two days. The format is cell-based. The source says: Human neonatal foreskin keratinocytes and human neonatal foreskin fibroblasts were isolated and grown in monlayer culture. Culture medium for keratinocytes was Keratincyte Growth Medium (KGM) from Clonetics, Inc., San Diego. Calif. The culture medium for fibroblasts was Dulbecco's Modified Eagle's Medium (DMEM) supplemented with non-essential amino acids and 10% fetal bovine serum. The culture medium was obtained from GIBCO, Grand Island, N.Y. and the FBS was from Hyclone Labs, Inc., Logan, Utah.
Cells at passage 2-4 were plated in wells of a 24 well dish at approximately 5×10^4 cells per well in their respective culture medium. Incubation was at 37° C. with 5% CO2. After the cells attached and spread overnight, they were washed two times in serum-free keratincyte basal medium (KBM) and incubated in 1 ml of KBM or in 1 ml of KGM. Compound IV was added in varying concentrations to the wells. All-trans-retinoic acid (or no treatment) was added to control wells. The cells were incubated for an additional two days for fibroblasts and three days for keratinocytes, and were then harvested and counted. The effect of IV and of the controls are shown for both cell types in Tables 9 and 10: […]

Assay [3] relates to ultraviolet damaged skin of hairless mice. As to conditions: topical tretinoin, several weeks; cited from earlier work.
In assay [4] the test system is keratinocytes. As to conditions: in vitro; cited from earlier work.

With `CC1=C(/C=C/C(C)=C/C=C/C(C)=C/C(=O)O)C(C)(C)CCC1` [all-trans-retinoic acid, reference compound], the “Effect on healing when applied after wounding” value in assay [1] (applied after wounding) is given as “deleterious effect on healing”. In addition, in assay [1] (pre-treated with 0.05% tretinoin cream for 10 days prior to wounding), the Rate of healing was 6%. Also, the results for the Number of fibroblasts in assay [2] (0.25 μg/ml), in assay [2] (0.5 μg/ml) and in assay [2] (1.0 μg/ml) were 10.1 ± 0.2 × 10^4 cells, 10.1 ± 0.1 × 10^4 cells and 9.6 ± 0.1 × 10^4 cells, respectively. Also, the “Repair of ultraviolet damaged skin” value in assay [3] was “subepidermal repair zone in the treated mice was significantly wider than that in the untreated control group; also recorded: augmented the repair of ultraviolet damaged tissue in the hairless mouse with new blood vessel formation”. For the same compound, the “Effect on keratinocyte proliferation and growth” value in assay [4] is “capacity to stimulate proliferation of quiescent keratinocytes in vitro”.
